# Test results published in US20080269162A1, “Novel Medicaments for Anti-Retroviral Treatments” (priority 2006, published 2008).
# Tested on: BRU virus (clade B)
# Experiment: Number of syncitia in MT4 cell culture infected by BRU virus
# Assay type: cell-based, HIV
# Design: key: the absence of syncitia is indicated by a minus (−) sign; the (+), +, ++, ++T signs indicate an increasing number of syncitia in each well; the (+), +, ++, ++T signs indicate an increasing number of syncitia in each well; the (+), +, ++, ++T signs indicate an increasing number of syncitia in each well; the (+), +, ++, ++T signs indicate an increasing number of syncitia in each well; The indication “T” indicates the death of the cells
# Settings: 0.01 μM; for Number of Syncitia in the Culture (wells), J3: day 3; for Number of Syncitia in the Culture (wells), J4: day 4; for Number of Syncitia in the Culture (wells), J5: day 5; for Number of Syncitia in the Culture (wells), J6: day 6; for Number of Syncitia in the Culture (wells), J7: day 7
# Protocol: either by the observation, as a function of the quantity of sulphated polysaccharide used and of the time of said use, which can be made before, during or after infection, or even continuously, and of the reduction of the number of syncitia appearing in a culture of MT4 cells following infection by a HIV retrovirus (example 2A),
# Then infection of the cells was carried out by adding to each well, with the exception of those wells being used as control cells, 50 μL of previously titrated virus dilution.
# After an additional hour of incubation, the plate was centrifuged and the supernatant containing the residual virus was discarded.
# After 3 days of culture, the cells were diluted to half and the syncitia were observed using the inverse microscope from day 3 to day 7 after having been placed in suspension.
# In the third case, the MT4 cell culture was preincubated for one hour at 37° C., then the cells were infected, the whole was subjected to incubation for one hour at 37° C., then to centrifugation with the elimination of the supernatant containing the virus that had not penetrated into the cells.
# The washings and rinsings were done using RPMI without foetal calf serum.
# In each of the four types of experiments that have just been described, and as previously indicated, the cells were diluted to half after three days of culture and then the syncitia were observed using the inverted microscope from day 3 to day 7.
# In the experiments described in greater detail hereinafter, the absence of syncitia is indicated by a minus (−) sign and the (+), +, ++, ++T signs indicate an increasing number of syncitia in each well.
# The indication “T” indicates the death of the cells.
# The BRU virus (clade B) was used for infecting the MT4 cells at a viral dilution of 10^5, which corresponds to the quantity of viral particles capable of infecting 80% of the MT4 cultures (Tissue Culture Infections Dose 80%, TCID80%).
# [1] = Continuous, before, during and after infection
substance,measurement,setting,value
3′-azidothymidine [AZT],"Number of Syncitia in the Culture (wells), J3",After infection,−
same,"Number of Syncitia in the Culture (wells), J4",After infection,−
same,"Number of Syncitia in the Culture (wells), J5",After infection,−
same,"Number of Syncitia in the Culture (wells), J6",After infection,−
same,"Number of Syncitia in the Culture (wells), J7",After infection,−
same,"Number of Syncitia in the Culture (wells), J3",Before infection,−
same,"Number of Syncitia in the Culture (wells), J4",Before infection,(+)
same,"Number of Syncitia in the Culture (wells), J5",Before infection,++ and +
same,"Number of Syncitia in the Culture (wells), J6",Before infection,++T and ++
same,"Number of Syncitia in the Culture (wells), J7",Before infection,++T
same,"Number of Syncitia in the Culture (wells), J3",[1],−
same,"Number of Syncitia in the Culture (wells), J4",[1],−
same,"Number of Syncitia in the Culture (wells), J5",[1],−
same,"Number of Syncitia in the Culture (wells), J6",[1],−
same,"Number of Syncitia in the Culture (wells), J7",[1],−
same,"Number of Syncitia in the Culture (wells), J3",During infection,−
same,"Number of Syncitia in the Culture (wells), J4",During infection,(+)
same,"Number of Syncitia in the Culture (wells), J5",During infection,+
same,"Number of Syncitia in the Culture (wells), J6",During infection,++
same,"Number of Syncitia in the Culture (wells), J7",During infection,++T
